# Data taken from the supplement of paper PMC5908809.
# Legend:
# Experiment in all cases: relative IC50 (inflection point of fitted viability curve, relative to fitted max inhibition); higher = less sensitive
# Conditions in all cases: 72 h
# NKL (IL-2 2.5 ng/mL) = tested on: NKL (IL-2 2.5 ng/mL)
# Procedure: (§1)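 Drug sensitivity and resistance testing: 5 concentrations over a 10,000-fold range, 72 h at 37 °C, viability by CellTiter-Glo normalised to DMSO and benzethonium chloride controls. IC50 is the inflection point of a logistic fit (min fixed at 0, max fitted), so it is relative to the fitted maximal inhibition. Kept only where fitted max inhibition is at least 50%.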
# NK-YS (IL-2 2.5 ng/mL) = tested on: NK-YS (IL-2 2.5 ng/mL)
# Procedure: as §1
# IMC-1 (IL-2 20 ng/mL) = tested on: IMC-1 (IL-2 20 ng/mL)
# Procedure: as §1
# KAI3 (IL-2 2.5 ng/mL) = tested on: KAI3 (IL-2 2.5 ng/mL)
# Procedure: as §1
# KHYG-1 (IL-2 2.5 ng/mL) = tested on: KHYG-1 (IL-2 2.5 ng/mL)
# Procedure: as §1
# DERL-7 (IL-2 2.5 ng/mL) = tested on: DERL-7 (IL-2 2.5 ng/mL)
# Procedure: as §1
# NK-92 (IL-2 2.5 ng/mL) = tested on: NK-92 (IL-2 2.5 ng/mL)
# Procedure: as §1
# [1] = tested on: normal primary NK cells, pool 2 (3 donors) (IL-2 2.5 ng/mL)
# Procedure: as §1
# SNK-6 (IL-2 2.5 ng/mL) = tested on: SNK-6 (IL-2 2.5 ng/mL)
# Procedure: as §1
# YT (IL-2 2.5 ng/mL) = tested on: YT (IL-2 2.5 ng/mL)
# Procedure: as §1
# [2] = tested on: normal primary NK cells, pool 1 (3 donors) (IL-2 2.5 ng/mL)
# Procedure: as §1
# [3] = tested on: normal primary NK cells, pool 1 (3 donors), resting (IL-2 0 ng/mL)
# Procedure: as §1
# [4] = tested on: normal primary NK cells, pool 3 (3 donors) (IL-2 2.5 ng/mL)
# Procedure: as §1
SMILES,relative IC50 (NKL (IL-2 2.5 ng/mL)),relative IC50 (NK-YS (IL-2 2.5 ng/mL)),relative IC50 (IMC-1 (IL-2 20 ng/mL)),relative IC50 (KAI3 (IL-2 2.5 ng/mL)),relative IC50 (KHYG-1 (IL-2 2.5 ng/mL)),relative IC50 (DERL-7 (IL-2 2.5 ng/mL)),relative IC50 (NK-92 (IL-2 2.5 ng/mL)),relative IC50 [1],relative IC50 (SNK-6 (IL-2 2.5 ng/mL)),relative IC50 (YT (IL-2 2.5 ng/mL)),relative IC50 [2],relative IC50 [3],relative IC50 [4]
O=C(O)c1ccc(-c2c[nH]c3ncc(-c4ccccc4)cc23)cc1C1CCCC1,1400 nM,1460 nM,3040 nM,307 nM,1490 nM,2820 nM,2330 nM,,,,,,
CC/C(=C(\c1ccc(O)cc1)c1ccc(OCCN(C)C)cc1)c1ccccc1 [4-hydroxytamoxifen],2700 nM,2250 nM,2130 nM,2640 nM,1290 nM,1690 nM,2850 nM,2700 nM,3890 nM,2330 nM,3340 nM,3750 nM,
Cc1csc(-c2nnc(Nc3ccc(Oc4ncccc4-c4ccnc(N)n4)cc3)c3ccccc23)c1 [AMG-900],> 1000 nM,5.4 nM,123 nM,,11.3 nM,11.1 nM,58.5 nM,> 1000 nM,2.8 nM,,> 1000 nM,,
CN[C@@H](C)C(=O)N[C@H]1CN(C(=O)CC(C)C)CC[C@H]2CC[C@@H](C(=O)NC(c3ccccc3)c3ccccc3)N2C1=O [AT-406],,,,1920 nM,1450 nM,,,1410 nM,,,1230 nM,1250 nM,1690 nM
CC[C@H](CC#N)OC(=O)N[C@@H](C)c1cccc(NC(=O)Nc2ccc(-c3cnco3)c(OC)c2)c1 [AVN944],117 nM,103 nM,622 nM,117 nM,103 nM,104 nM,166 nM,,67.7 nM,138 nM,,2170 nM,
CC(C)Oc1cc(Nc2nc(N[C@@H](C)c3ccc(F)cn3)ncc2Cl)n[nH]1 [AZ-23],,,,,,,,606 nM,,,,> 1000 nM,
Cc1cc(Nc2nc(N[C@@H](C)c3ncc(F)cn3)ncc2Cl)[nH]n1 [AZD1480],23.3 nM,78.1 nM,331 nM,20.8 nM,26.1 nM,50.5 nM,126 nM,80.6 nM,73.1 nM,197 nM,75.5 nM,,123 nM
NC(=O)Nc1cc(-c2cccc(F)c2)sc1C(=O)N[C@H]1CCCNC1 [AZD7762],43.2 nM,132 nM,353 nM,28.8 nM,29.2 nM,115 nM,131 nM,,127 nM,145 nM,,,
N#Cc1ccc2[nH]c(O)c(-c3ccc(CN4CCOCC4)cn3)c2c1 [AZD-1080],,,3180 nM,,,3420 nM,> 10000 nM,,> 10000 nM,,,,
Cc1c(CN2CCN(C(=O)[C@H](C)O)CC2)sc2c(N3CCOCC3)nc(-c3cnc(N)nc3)nc12 [Apitolisib],492 nM,599 nM,,457 nM,1600 nM,204 nM,145 nM,1320 nM,,622 nM,902 nM,,2310 nM
CC(C)c1c(C(=O)Nc2ccccc2)c(-c2ccccc2)c(-c2ccc(F)cc2)n1CC[C@@H](O)C[C@@H](O)CC(=O)O [Atorvastatin],332 nM,579 nM,1520 nM,2760 nM,2380 nM,2180 nM,3670 nM,,,1630 nM,,,
CNC(=O)c1ccccc1Sc1ccc2c(/C=C/c3ccccn3)n[nH]c2c1 [Axitinib],734 nM,1100 nM,2760 nM,717 nM,916 nM,323 nM,1500 nM,,707 nM,1200 nM,,,
Cc1cc2c(F)c(Oc3ncnn4cc(OC[C@@H](C)O)c(C)c34)ccc2[nH]1 [Brivanib],> 1000 nM,,> 1000 nM,,> 1000 nM,,> 1000 nM,> 1000 nM,,> 1000 nM,,,> 1000 nM
CC(C)(C)c1nc(-c2cccc(NS(=O)(=O)c3c(F)cccc3F)c2F)c(-c2ccnc(N)n2)s1 [Dabrafenib],> 2500 nM,,,,72.1 nM,,> 2500 nM,> 2500 nM,,,,,> 2500 nM
Cn1c(=O)n(-c2ccc(C(C)(C)C#N)cc2)c2c3cc(-c4cnc5ccccc5c4)ccc3ncc21 [Dactolisib],10.4 nM,26.1 nM,198 nM,17.3 nM,48 nM,9.68 nM,15 nM,31.8 nM,40.5 nM,40.9 nM,,,
CO[C@@H](C(=O)N1Cc2[nH]nc(NC(=O)c3ccc(N4CCN(C)CC4)cc3)c2C1)c1ccccc1 [Danusertib],1380 nM,204 nM,312 nM,460 nM,493 nM,175 nM,337 nM,,413 nM,,,,
COC(=O)N[C@@H](C)CNc1nccc(-c2cn(C(C)C)nc2-c2cc(Cl)cc(NS(C)(=O)=O)c2F)n1 [Encorafenib],,,,,34.3 nM,,,> 1000 nM,,,> 1000 nM,,> 1000 nM
COc1cc([C@@H]2c3cc4c(cc3[C@@H](O[C@@H]3O[C@@H]5CO[C@@H](C)O[C@H]5[C@H](O)[C@H]3O)[C@H]3COC(=O)[C@H]23)OCO4)cc(OC)c1O [Etoposide],47.3 nM,161 nM,137 nM,73.2 nM,435 nM,134 nM,646 nM,1920 nM,615 nM,1080 nM,1830 nM,743 nM,
CO[C@H]1C[C@@H]2CC[C@@H](C)[C@@](O)(O2)C(=O)C(=O)N2CCCC[C@H]2C(=O)O[C@H]([C@H](C)C[C@@H]2CC[C@@H](OCCO)[C@H](OC)C2)CC(=O)[C@H](C)/C=C(\C)[C@@H](O)[C@@H](OC)C(=O)[C@H](C)C[C@H](C)/C=C/C=C/C=C/1C [Everolimus],,,> 100 nM,,,0.94 nM,,,,,,,> 100 nM
O=S(=O)(c1cccc2cnccc12)N1CCCNCC1 [Fasudil],,,,6870 nM,,,,10900 nM,,8760 nM,8170 nM,,15900 nM
CC(C)(C)NC(=O)[C@H]1CC[C@H]2[C@@H]3CC[C@H]4NC(=O)C=C[C@]4(C)[C@H]3CC[C@]12C [Finasteride],,,,,,,,,> 10000 nM,,,,
Cc1cccc(-c2nn3c(c2-c2ccnc4ccc(C(N)=O)cc24)CCC3)n1 [Galunisertib],> 1000 nM,> 1000 nM,> 1000 nM,,,,,> 1000 nM,,,,,> 1000 nM
O=P1(NCCCl)OCCCN1CCCl (stereo unspecified) [Ifosfamide],> 10000 nM,,> 10000 nM,> 10000 nM,> 10000 nM,> 10000 nM,> 10000 nM,> 10000 nM,,> 10000 nM,,,> 10000 nM
CC(C)Cn1cnc2c(N)nc3ccccc3c21 [Imiquimod],,,,,,,,,89.6 nM,,,,
CN[C@@H](C)C(=O)N[C@H](C(=O)N1CCC[C@H]1c1nc(C(=O)c2ccc(F)cc2)cs1)C1CCCCC1 [LCL161],,,,2940 nM,251 nM,1390 nM,2900 nM,772 nM,,,1040 nM,2520 nM,932 nM
